Patent US20060069132A1, “Azolecarboxamide herbicides” (priority 2004, published 2006)

Legend:
ducksalad [1] = experiment: Test B flooded paddy test; type: in vivo, Heteranthera limosa; details: 1000 g ai/ha, scale 0 to 100 (0 no effect, 100 complete control)
Outline: (§1)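 Greenhouse test; postemergence application to plants at 1–4 leaves (2–18 cm); paddy species at 2 leaves; evaluated visually vs controls at 13–15 days; scale 0–100 (100 = complete control).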

velvetleaf = experiment: Test B pre-/postemergence herbicide test; type: in vivo, Abutilon theophrasti; details: for Velvetleaf plant response rating: postemergence
Outline: (§2)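 Plants compared with untreated controls 13–15 days post-treatment and given a visual 0–100 injury score. Applications: preemergence to seeds; postemergence at 1- to 4-leaf (2–18 cm); paddy species flooded, 2-leaf stage. Vehicle non-phytotoxic, surfactant included.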

blackgrass = experiment: Test B postemergence herbicide test; type: in vivo, Alopecurus myosuroides; details: postemergence
Outline: as §1

rice [2] = experiment: Test B flooded paddy test; type: in vivo, Oryza sativa; details: 1000 g ai/ha, scale 0 to 100 (0 no effect, 100 complete control)
Outline: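 Formulated test chemicals went onto postemergence plants measuring 2 to 18 cm, at one to four leaves. For the paddy assay, species had reached two leaves. Scoring took place 13–15 days later by eye, relative to untreated plants, using 0 for no effect up to 100 for full control.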

cocklebur = experiment: Test B pre-/postemergence herbicide test; type: in vivo, Xanthium strumarium; details: for Cocklebur plant response rating: postemergence
Outline: (§3)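 Greenhouse pot assay with simultaneous preemergence (treated seed) and postemergence (2–18 cm seedlings) applications of surfactant-containing, non-phytotoxic solvent formulations. Response scored visually 13–15 days later on a 0–100 scale, 100 meaning complete control.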

pigweed = experiment: Test B pre-/postemergence herbicide test; type: in vivo, Amaranthus retroflexus; details: for Pigweed plant response rating: postemergence
Outline: as §2

lambsquarters = experiment: Test B pre-/postemergence herbicide test; type: in vivo, Chenopodium album; details: for Lambsquarters plant response rating: postemergence
Outline: as §2

corn = experiment: Test B pre-/postemergence herbicide test; type: in vivo, Zea mays; details: for Corn plant response rating: postemergence
Outline: as §2

giant foxtail = experiment: Test B pre-/postemergence herbicide test; type: in vivo, Setaria faberi; details: for Foxtail, Giant plant response rating: postemergence
Outline: as §2

wild oat = experiment: Test B postemergence herbicide test; type: in vivo, Avena fatua; details: postemergence
Outline: (§4)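 Scale 0–100: zero equals no visible effect, 100 complete control, judged by eye relative to controls. Timing: 13 to 15 days in greenhouse post-treatment. Growth stage at spraying: two leaves (paddy) or one to four leaves, 2–18 cm (postemergence).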

rice [3] = experiment: Test B pre-/postemergence herbicide test; type: in vivo, Oryza sativa; details: 0 = no effect, 100 = complete control, preemergence
Outline: as §3

barnyardgrass [4] = experiment: Test B pre-/postemergence herbicide test; type: in vivo, Echinochloa crus-galli; details: for Barnyardgrass plant response rating: postemergence
Outline: as §3

Surinam grass = experiment: Test B pre-/postemergence herbicide test; type: in vivo, Urochloa decumbens; details: for Surinam Grass plant response rating: postemergence
Outline: as §2

morningglory = experiment: Test B pre-/postemergence herbicide test; type: in vivo, Ipomoea coccinea; details: for Morningglory plant response rating: postemergence
Outline: as §3

barnyardgrass [5] = experiment: Test C flooded paddy test; type: in vivo, Echinochloa crus-galli
Outline: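 Scoring by eye, 12–14 days post-treatment, greenhouse-held plants vs. controls; 0 no effect, 100 complete control. Sprayed at 1–4 leaves (2–18 cm); paddy barnyardgrass at 2 leaves, flooded.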

barnyardgrass [6] = experiment: Test B flooded paddy test; type: in vivo, Echinochloa crus-galli; details: 1000 g ai/ha, scale 0 to 100 (0 no effect, 100 complete control)
Outline: as §1

ducksalad [7] = experiment: Test C flooded paddy test; type: in vivo, Heteranthera limosa
large crabgrass = experiment: Test B pre-/postemergence herbicide test; type: in vivo, Digitaria sanguinalis; details: for Crabgrass, Large plant response rating: postemergence
Outline: as §2

[8] = tested on: small flower umbrella sedge; experiment: Test B flooded paddy test; type: in vivo, Cyperus difformis; details: 1000 g ai/ha, scale 0 to 100 (0 no effect, 100 complete control)
Outline: as §1

wheat = experiment: Test B postemergence herbicide test; type: in vivo, Triticum aestivum; set-up: key to Wheat plant response rating: 0 = no effect, 100 = complete control; details: postemergence
Outline: as §4

rice [9] = experiment: Test C flooded paddy test; type: in vivo, Oryza sativa
Outline: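 Postemergence sprays applied to plants 2 to 18 cm tall (1- to 4-leaf stage); paddy species grown to 2-leaf stage under flooding. After 12 to 14 days in greenhouse, visual rating versus untreated controls on 0–100 scale (0 no effect, 100 complete control).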

[10] = tested on: smallflower umbrella sedge; experiment: Test C flooded paddy test; type: in vivo, Cyperus difformis
[11] = 125 g ai/ha, visual rating, scale 0 (no effect) to 100 (complete control)
[12] = 500 g ai/ha, visual rating, 0 = no effect, 100 = complete control, preemergence
[13] = 500 g ai/ha, scale 0 to 100, 0 is no effect, 100 is complete control
[14] = 125 g ai/ha, 0 = no effect, 100 = complete control, preemergence
[15] = 125 g ai/ha, scale 0 to 100 (0 no effect, 100 complete control)
[16] = 250 g ai/ha, scale of 0 to 100, 0 is no effect, 100 is complete control
[17] = 500 g ai/ha, visual rating after 12 to 14 days, scale 0 to 100 (0 no effect, 100 complete control)

With `CCn1nc(C2(C)CC2)cc1C(=O)Nc1cccc(C(=O)N(C)C)c1` [Compound 303] the “Ducksalad plant response rating” value (ducksalad [1]) was 90, the “Velvetleaf plant response rating” value (velvetleaf; [11]) was 30 and the “Plant response rating, Velvetleaf” value (velvetleaf; [12]) was 100. For the same compound, the “Velvetleaf plant response rating” value (velvetleaf; [13]) was 70, the “Blackgrass plant response rating” value (blackgrass; [11]) was 20 and the “Blackgrass plant response rating” value (blackgrass; [13]) was 40. The “Rice plant response rating” value (rice [2]) was 90, the “Cocklebur plant response rating (0 to 100 scale)” value (cocklebur; [14]) was 0 and the “Cocklebur plant response rating” value (cocklebur; [11]) was 10. For the same compound, the “Plant response rating, Cocklebur” value (cocklebur; [12]) was 20, the “Cocklebur plant response rating” value (cocklebur; [13]) was 30 and the “Pigweed plant response rating (0 to 100 scale)” value (pigweed; [14]) was 100. The “Pigweed plant response rating” value (pigweed; [11]) was 70, the “Plant response rating, Pigweed” value (pigweed; [12]) was 100 and the “Pigweed plant response rating” value (pigweed; [13]) was 90. For the same compound, the “Lambsquarters plant response rating (0 to 100 scale)” value (lambsquarters; [14]) was 100, the “Lambsquarters plant response rating” value (lambsquarters; [11]) was 80 and the “Plant response rating, Lambsquarters” value (lambsquarters; [12]) was 100. The “Lambsquarters plant response rating” value (lambsquarters; [13]) was 90, the “Corn plant response rating” value (corn; [11]) was 70 and the “Plant response rating, Corn” value (corn; [12]) was 70. The “Corn plant response rating” value (corn; [13]) was 70, the “Foxtail, Giant plant response rating (0 to 100 scale)” value (giant foxtail; [14]) was 50 and the “Foxtail, Giant plant response rating” value (giant foxtail; [11]) was 50. For the same compound, the “Plant response rating, Foxtail, Giant” value (giant foxtail; [12]) was 100, the “Foxtail, Giant plant response rating” value (giant foxtail; [13]) was 50 and the “Oat, Wild plant response rating” value (wild oat; [11]) was 30. For the same compound, the “Oat, Wild plant response rating” value (wild oat; [13]) was 40, the “Rice plant response rating (0 to 100 scale)” value (rice [3]; 125 g ai/ha) was 70 and the “Plant response rating, Rice” value (rice [3]; 500 g ai/ha, visual rating) was 80. For the same compound, the “Barnyardgrass plant response rating (0 to 100 scale)” value (barnyardgrass [4]; [14]) was 70, the “Barnyardgrass plant response rating” value (barnyardgrass [4]; [11]) was 40 and the “Plant response rating, Barnyardgrass” value (barnyardgrass [4]; [12]) was 90. The “Barnyardgrass plant response rating” value (barnyardgrass [4]; [13]) was 40, the “Surinam Grass plant response rating (0 to 100 scale)” value (Surinam grass; [14]) was 50 and the “Surinam Grass plant response rating” value (Surinam grass; [11]) was 10. The “Plant response rating, Surinam Grass” value (Surinam grass; [12]) was 100, the “Surinam Grass plant response rating” value (Surinam grass; [13]) was 20 and the “Morningglory plant response rating (0 to 100 scale)” value (morningglory; [14]) was 10. The “Morningglory plant response rating” value (morningglory; [11]) was 80, the “Plant response rating, Morningglory” value (morningglory; [12]) was 50 and the “Morningglory plant response rating” value (morningglory; [13]) was 90. For the same compound, the “Barnyardgrass plant response rating” value (barnyardgrass [5]; 62 g ai/ha, scale 0 to 100 (0 no effect, 100 complete control)) was 30, the “Barnyardgrass plant response rating” value (barnyardgrass [5]; [15]) was 45 and the “Barnyardgrass plant response rating” value (barnyardgrass [5]; [16]) was 80. The “Plant response rating, Barnyardgrass” value (barnyardgrass [5]; [17]) was 95, the “Barnyardgrass plant response rating” value (barnyardgrass [6]) was 90 and the “Ducksalad plant response rating” value (ducksalad [7]; 62 g ai/ha, scale 0 to 100) was 55. The “Ducksalad plant response rating” value (ducksalad [7]; [15]) was 75, the “Ducksalad plant response rating” value (ducksalad [7]; [16]) was 80 and the “Plant response rating, Ducksalad” value (ducksalad [7]; [17]) was 85. For the same compound, the “Crabgrass, Large plant response rating (0 to 100 scale)” value (large crabgrass; [14]) was 100, the “Crabgrass, Large plant response rating” value (large crabgrass; [11]) was 10 and the “Plant response rating, Crabgrass, Large” value (large crabgrass; [12]) was 100. For the same compound, the “Crabgrass, Large plant response rating” value (large crabgrass; [13]) was 60, the “Sedge, Umbrella plant response rating” value [8] was 90 and the “Wheat plant response rating” value (wheat; [11]) was 10. For the same compound, the “Wheat plant response rating” value (wheat; [13]) was 20, the “Rice plant response rating” value (rice [9]; 62 g ai/ha, scale 0 to 100) was 30 and the “Rice plant response rating” value (rice [9]; [15]) was 65. The “Rice plant response rating” value (rice [9]; [16]) was 80, the “Plant response rating, Rice” value (rice [9]; [17]) was 85 and the “Sedge, Umbrella plant response rating” value ([10]; 62 g ai/ha, scale 0 to 100) was 75. The “Sedge, Umbrella plant response rating” value [10, 15] was 85, the “Sedge, Umbrella plant response rating” value [10, 16] was 85 and the “Plant response rating, Sedge, Umbrella” value [10, 17] was 90.
